Results taken from PMC5352362, “Molecular and functional evaluation of a novel HIF inhibitor, benzopyranyl 1,2,3-triazole compound” (Oncotarget, 2016).
Where two headings read alike, the source gives them in different places.

Key:
[1] = test system: chick chorioallantoic membrane angiogenesis; test: Chick embryo chorioallantoic membrane (CAM) assay; format: in vivo; conditions: applied to ED 4.5 CAM for two days; Compound 12 0.1 μg and 1 μg
Experimental: Figure 5 Compound 12 suppressed HIF-1α target gene expression, and confirmation of in vitro results via determination of effects on angiogenesis in vivo (A) A549 cells were treated with Compound 12 (at concentrations of 0 nM, 1 nM, 10 nM, and 100 nM) for 16 h. The mRNA levels of HIF-1α target genes were determined by semiquantitative RT-PCR. β-actin was used as an internal control. D. DMSO vehicle control. N, normoxia; H, hypoxia. (B) A549 cells were treated with serum-reduced culture media containing Compound 12 (at concentrations of 0 nM, 10 nM, and 100 nM) for 16 h. Media supernatant was collected, and secreted VEGF was determined by ELISA after removal of cellular debris. N, normoxia; H, hypoxia. **P < 0.01 versus hypoxia (H) DMSO (D)-treated control. (C) HUVECs were treated with Compound 12, at the indicated concentrations, in the presence of VEGF (20 ng/mL) for 24 h in 1% serum-containing media. […] Cells that migrated through the membrane (8 μm pore size) were stained with hematoxylin and eosin, pictured as shown in upper panel, and counted (graph). *P < 0.05, **P < 0.01 versus VEGF-treated control. […] (F) Compound 12 (0.1 μg and 1 μg dosages) and retinoic acid (RA, positive control) were applied to the ED 4.5 CAM for two days, neovessel formation from the large vessels was observed, and percentages of positive angiogenic eggs (from total eggs tested) were calculated. […]

HIF-1α = conditions: cited from earlier work
[2] = test system: angiogenesis (hemoglobin content of Matrigel plug); test: Matrigel plug assay in C57BL/6J mice; format: in vivo, mouse; conditions: Compound 12 100 nM, gefitinib 5 μM in Matrigel, 10 days
Experimental: HIF-1α is synthesized by growth factor signaling pathways, such as those of EGFR [30] [31]. Inhibition of HIF-1α in its pathways of synthesis, as well as in its pathway of degradation, would seem to make for a more efficient anti-cancer/anti-angiogenesis treatment. To confirm this, we performed a tumor allogaft experiment using Lewis lung carcinoma (LLC) cells. 1 × 10^6 LLC cells were inoculated into the mouse flank subcutaneously (s.c.), and treatment with Compound 12 (5 mg/kg) and/or gefitinib (an EGFR inhibitor, 50 mg/kg), via intraperitoneal (i.p.) administration, was performed every other day for 20 days. […] To confirm the effect of Compound 12 on angiogenesis, we analyzed angiogenesis using the Matrigel plug assay. […]
Figure 6 Compound 12 suppressed allogaft tumor growth and enhanced the effects of a chemotherapeutic agent (A, B) Lewis lung carcinoma cells were inoculated into flanks of C57BL/6J mice (Day 0). […] Tumor size (A) and tumor weight (B) were measured three times a week and on the final day, respectively. […] The content of hemoglobin was quantified and graphed. (D) Tumor tissue sections (10 μm) indicated were stained with H&E and immunostained with anti-CD31 antibody to detect microvessel density; CD31+ cell percentages were then calculated and graphed. […] (F) Images and quantitative comparisons (graph) for Ki67+ proliferating cells in tumor center regions are shown. […]

[3] = test system: Lewis lung carcinoma (LLC) cells; test: Lewis lung carcinoma allograft in C57BL/6J mice with immunohistochemistry; format: in vivo, mouse
Experimental: HIF-1α is synthesized by growth factor signaling pathways, such as those of EGFR [30] [31]. Inhibition of HIF-1α in its pathways of synthesis, as well as in its pathway of degradation, would seem to make for a more efficient anti-cancer/anti-angiogenesis treatment. To confirm this, we performed a tumor allogaft experiment using Lewis lung carcinoma (LLC) cells. 1 × 10^6 LLC cells were inoculated into the mouse flank subcutaneously (s.c.), and treatment with Compound 12 (5 mg/kg) and/or gefitinib (an EGFR inhibitor, 50 mg/kg), via intraperitoneal (i.p.) administration, was performed every other day for 20 days. At Day 20, mice were sacrificed and tumor tissue was fixed in formaldehyde for 1 h for further histological examination. […] To confirm the effect of Compound 12 on angiogenesis, we analyzed angiogenesis using the Matrigel plug assay. […] To confirm the effects of Compound 12 on anti-angiogenesis, we sectioned the tumor tissues to determine microvessel density (MSD) via immunohistochemistry (using CD31 antibody).
Figure 6 Compound 12 suppressed allogaft tumor growth and enhanced the effects of a chemotherapeutic agent (A, B) Lewis lung carcinoma cells were inoculated into flanks of C57BL/6J mice (Day 0). From two days after inoculation, mice were treated intraperitoneally with Compound 12 (5 mg/kg body weight) and gefitinib (50 mg/kg body weight), three times a week, for 18 days and then sacrificed. Tumor size (A) and tumor weight (B) were measured three times a week and on the final day, respectively. Tumor masses were photographed and shown in box below the graph. **P < 0.05 versus control group. (C) Matrigel was treated with DMSO, Compound 12 (100 nM), and gefitinib (5 μM) and inoculated in the flank of C57BL/6J mice. After 10 days matrigel plug was removed and photographed. The content of hemoglobin was quantified and graphed. (D) Tumor tissue sections (10 μm) indicated were stained with H&E and immunostained with anti-CD31 antibody to detect microvessel density; CD31+ cell percentages were then calculated and graphed. Scale bar, 100 μm. **P < 0.05 versus control group. (E) Images and quantitative comparisons (graph) for hypoxic regions, immunostained CA9 protein, and microvessels (CD31+ cells) in tumor center regions are shown. Scale bar, 100 μm. **P < 0.05 versus control group. (F) Images and quantitative comparisons (graph) for Ki67+ proliferating cells in tumor center regions are shown. Scale bar, 100 μm. **P < 0.05 versus control group.
We determined levels of hypoxia in tissues via: 1) antibodies against the hypoxic cell marker pimonidazole (PIMO), and 2) checking expression levels of carbonic anhydrase (CA9), a downstream target of HIF-1.
LLC cells (1 × 10^6) were injected subcutaneously into the flanks of 6-week-old C57BL/6J mice (Day 0)(SLC, Japan). Tumor size and body weight were measured 3 time a week. Tumor tissues were removed at day 20 after completion of injection of vehicle or drugs and fixed with 4% paraformaldehyde (PFA). After tissue processing for frozen sample preparation protocol, samples were embedded in OCT compound and frozen quickly by liquid nitrogen. Frozen blocks were cut into 10 μm sections and stained with hematoxylin and eosin (H&E) for light microscopy. Additional tissue sections for immunohistochemistry were blocked with 5% goat serum in PBST (0.03% Triton X-100 in PBS) and then incubated for 3 h at RT with following primary antibodies, anti-CD31 and anti-Ki67. To detect the hypoxic area in the tumors, Hypoxyprobe-1™ (60 mg/kg, Natural Pharmacia International) was iv injected 90 min before tissue fixation. Tumors were harvested, sectioned and stained with FITC-conjugated anti-Hypoxyprobe antibody.

[4] = read-out: IC50 of HIF-1α inhibitor

## CC1=C(/C=C/C(C)=C/C=C/C(C)=C/C(=O)O)C(C)(C)CCC1 [retinoic acid, reference compound]
[1]
  CAM angiogenesis: significantly suppressed CAM angiogenesis

## CC1(C)C=Cc2c(ccc(C(=O)/C=C/c3cccs3)c2O)O1 [SYP-5]
HIF-1α; [4]
  IC50: 10000 nM

## OCc1ccc(-c2nn(Cc3ccccc3)c3ccccc23)o1 [YC-1, 3-(5′-hydroxymethyl-2′-furyl)-1-benzyl indazole]
HIF-1α; [4]
  IC50: 2000 to 50000 nM

## CS[C@H]1SC[C@H]2C(=O)N(C)[C@@H](C(C)C)C(=O)OC[C@@H](NC(=O)c3cnc4ccccc4n3)C(=O)N[C@@H](C)C(=O)N(C)[C@@H]1C(=O)N(C)[C@@H](C(C)C)C(=O)OC[C@@H](NC(=O)c1cnc3ccccc3n1)C(=O)N[C@@H](C)C(=O)N2C [echinomycin]
HIF-1α; reference not given, read-out: inhibitory concentration of HIF-1α inhibitor
  IC50: 1.2 nM

## COc1cc2ncnc(Nc3ccc(F)c(Cl)c3)c2cc1OCCCN1CCOCC1 [gefitinib, reference compound]
[2]
  anti-angiogenic activity, Matrigel plug (hemoglobin content): anti-angiogenic activity was increased
[3]; LLC allograft tumor sections
  levels of PIMO and CA9 in tumors, single agent: significantly diminished
  microvessel density (MSD), CD31, single agent: significantly decreased MSD
[3]; LLC allograft tumor sections, single agent
  cells expressing Ki-67 protein in tumors: significantly decreased
[3]; LLC allograft, C57BL/6J mice, i.p., Compound 12 5 mg/kg, gefitinib 50 mg/kg
  tumor growth, single agent: inhibited tumor growth significantly

## COC(=O)c1ccc(O)c(NC(=O)COc2ccc(C34CC5CC(CC(C5)C3)C4)cc2)c1 [LW6]
HIF-1α; [4]
  IC50: 2500 to 3000 nM

## CC(C)C[C@H](NC(=O)[C@H](Cc1ccccc1)NC(=O)c1cnccn1)B(O)O [bortezomib]
HIF-1α; prostate cancer cells
  concentrations inhibiting p300-HIF-1α binding / HIF-1α: 0.6 to 30 nM
